Data reported in patent US5843917A, “5-Fluorouracil derivatives” (priority 1993, dated 1998).
Read-outs that look alike come from different tables or passages of the source.

Key:
uracil reductase = settings: cited from earlier work
[1] = Urinary recovery of 5-FU in mice dosed with 5-FU or the succinate linked nucleoside; type: in vivo; settings: mouse; for dose excreted: urine, po, 5 mg/kg
Protocol: (§1) 5-FU and 5-EU bases and nucleosides were dissolved in deionized HPLC grade water immediately prior to dosing. All animals were dosed once, p.o. via gastric gavage at the indicated mg/kg dose for each compound (See Results Section and Figures). 5-EU and 5-EU nucleosides were dosed to animals 0.5 hr prior to dosing with 5-FU and 5-FU nucleosides. Dosing was routinely performed between 11 am and 1 pm. An approximate volume of 300 μL was used for each dose. Rats were placed in individual Nalge metabolism cages, which separate urine and faeces, and continued on a 12 hr light/dark schedule post-dosing. Mice were treated post-dose in a similar manner with the exception that 5 mice were housed per cage.
(§2) Urine from each cage was collected into 0-24 hr and 24-48 hr post-dose fractions. Cages were rinsed with deionized water prior to collection of each fraction. The combined volume of urine and rinse was brought to a standard volume with deionized water.
5-FU recovery in mouse urine was determined as above with three exceptions: a Phenomenex 5 μm Extrasil C-18 column (250mm×4.6 mm i.d.; Phenomenex, Torrance, Calif.) was used; an identical gradient with buffer A as aqueous 50 mM formic acid, pH 3.5, with 0.5% acetonitrile and buffer B as aqueous 50 mM formic acid, pH 3.5, with 60% acetonitrile was used; the standard curve was prepared by diluting known concentrations of 5-FU into undosed mouse urine and eluting with the latter described gradient and buffers, instead of isocratic conditions.
For these studies mice were dosed with either 5 mg/kg 5-FU or given an equivalent dose of 5-FU via the succinate linked nucleoside. The urinary recovery of 5-FU was measured in the presence and absence of 5-EU (Table 2). […] When mice were predosed with 5-EU followed by dosing with 5-FU, the urinary recovery of 5-FU was 50%. Mice dosed with the succinate linked nucleoside gave 25-30% urinary recovery of 5-FU available from the linked compound.

Colon 38 = experiment: In vivo antitumor testing with s.c. murine Colon 38 carcinoma in C57BL/6 female mice
Protocol: (§3) In vivo antitumor testing with murine Colon 38 was conducted in-house. C57BL/6 female mice were housed in sterile, polycarbonate, filter-capped Microisolator cages (Lab Products, Inc., Maywood, N.J.) containing sterile hardwood bedding. Mice were fed sterile rodent chow and filter-sterilised water ad libitum. All manipulations of these mice were conducted in laminar-flow biosafety hoods. Colon 38 carcinoma was obtained from the Development Therapeutics Program Tumour Repository. Mice were implanted s.c. with 70 mg tumour fragments using a number 13 trocar. There were 10 mice in the control group that received tumour implants without drug treatment. There were 5 mice in each group treated with the dose and compounds as described below. Treatment began on day 16 post tumour implant and compounds were dosed once/day for 9 days. 5-FU was dosed at 15, 20, 25, 30, and 40 mg/kg.. […] Tumour weights were calculated three times per week from measurements of tumour length and width. Antitumor activity was expressed as the days delay in tumour growth (T-C). T-C was calculated as the difference in the median of days for treated animals minus control animals for tumour mass to double twice post initial day of dosing (Day 16). Tumour-free survivors were not excluded from T-C calculations. Surviving mice were sacrificed after day 56.

[2] = as above; settings: mouse, in vivo, sc, mice with s.c. Colon 38
Protocol: as §3

[3] = Urinary recovery of 5-FU in rats dosed with the succinate linked nucleoside; type: in vivo; settings: rat; 25 mg/kg 5-FU equivalent
Protocol: as §1
Urine from each cage was collected into 0-24 hr and 24-48 hr post-dose fractions. […]
(§4) 5 ml of a thoroughly mixed urine sample was filtered through a Millex GS 0.22 μm filter (Millipore, Bedford, Mass.) and frozen prior to HPLC analysis. […] 100 μL of this solution was quantitated for 5-FU by HPLC on a Waters Associates System (Waters Associates, Milford, Mass.) equipped with a Waters 600E system controller, a Waters 600 solvent delivery system, a Waters model 712 WISP automated sample injector, a Waters 484 tuneable absorbance detector, and a Waters 991 photodiode array detector. […]
Rats were dosed 25 mg/kg 5-FU equivalent with the succinate linked nucleosides. […] 5-FU was not detected in the 24-48 hr urine.

[4] = Urinary recovery of 5-FU in rats for 5-FU and various 5-FU containing nucleosides; type: in vivo; settings: rat, urine, po, p.o., read-out: % 5-FU Recovery 0-24 hr Urine (Average of Two Experiments)
Protocol: as §1, §2
as §4, with “detector. For quantitiation of 5-FU in rat urine, HPLC was performed on a 250 mm×4.6 mm YMC AQ-303 S-5 120A ODS analytical column (YMC, Morris Plains, N.J.) or on a Microsorb C18 analytical column with identical dimensions (Rainin Instrument Co., Woburn, Mass.).” for “detector.”
Plots of UV peak area vs 5-FU concentration were linear between 5 μM and 100 μM. The total urinary recovery of 5-FU was determined by multiplication of the nmoles of 5-FU determined from the standard curve by the dilution factor of 3 (above) and by the standard volume of urine collected. […]

[5] = literature reports; combination with 5-fluorouracil or its prodrug; cited from earlier work
DPD = experiment: Protection of 5-FU from DPD catabolism by release of 5-EU from nucleosides (urinary recovery of 5-FU in rats); type: in vivo; settings: rat; oral predose 0.03, 0.3 and 3.0 mg/kg, then 25 mg/kg 5-FU
Protocol: 5-FU and 5-EU bases and nucleosides were dissolved in deionized HPLC grade water immediately prior to dosing. […] 5-EU and 5-EU nucleosides were dosed to animals 0.5 hr prior to dosing with 5-FU and 5-FU nucleosides. Dosing was routinely performed between 11 am and 1 pm. An approximate volume of 300 μL was used for each dose. Rats were placed in individual Nalge metabolism cages, which separate urine and faeces, and continued on a 12 hr light/dark schedule post-dosing.
5 ml of a thoroughly mixed urine sample was filtered through a Millex GS 0.22 μm filter (Millipore, Bedford, Mass.) and frozen prior to HPLC analysis. 1 ml of the thawed primary filtered solution was diluted with 2 ml of water and particulates were removed from this diluted stock solution using a Centrifree micro partition system (Amicon Division, W. R. Grace and Co., Beverly Mass.). […]

For C#Cc1c[nH]c(=O)[nH]c1=O [Example 5-EU, 5-ethynyluracil], the “potency as an inactivator of uracil reductase relative to BVU” value (uracil reductase; relative to BVU) is given as 100 fold.
With C#Cc1cn([C@H]2C[C@H](OC(=O)CCC(=O)O[C@H]3C[C@H](n4cc(F)c(=O)[nH]c4=O)O[C@@H]3CO)[C@@H](CO)O2)c(=O)[nH]c1=O [Example 1, 5-Ethynyl-5"-fluoro-3',3"-O-succinylbis-(1-(2-deoxy-β-D-erythro-pentofuranosyl)uracil)] the “improvement of 5-FU urinary recovery by 5-EU predose” value ([1]; predosed with 5-EU then succinate linked nucleoside) was “no improvement”, the “Tumour-free Survivors (Day 56)” value (Colon 38; 1 mg/kg 5-FU equivalent) was 0/5 and the “Antitumour Activity T-C” value (Colon 38; 1 mg/kg 5-FU equivalent, once/day for 9 days) was 12.9 days. For the same molecule, the “Tumour-free Survivors (Day 56)” value (Colon 38; 2 mg/kg 5-FU equivalent) was 2/5, the “Antitumour Activity T-C” value (Colon 38; 2 mg/kg 5-FU equivalent, once/day for 9 days) was > 27.9 days and the MTD ([2]; 5-FU and 5-EU equivalents, read-out: toxic at doses, as 5-FU and 5-EU equivalents) was > 4 mg/kg. For the same molecule, the MTD ([2]; dose of the linked compound, once/day for 9 days, read-out: toxic at doses) was > 17.9 mg/kg and the “5-FU in the 24-48 hr urine” value [3] was “not detected”.
With O=c1[nH]cc(F)c(=O)[nH]1 [Example 5-FU, 5-fluorouracil] the dose excreted at 24 h ([4]; 5 mg/kg, 5-FU 5 mg/kg, 5-EU predose 2 mg/kg) was 52%, the dose excreted at 24 h ([4]; 5 mg/kg, 5-FU 5 mg/kg, no predose) was < 5% and the dose excreted at 24 h ([4]; 25 mg/kg, 5-FU 25 mg/kg, 5-EU predose 0.03 mg/kg) was 43 to 63%. The dose excreted ([1]; 5 mg/kg 5-FU, predosed with 5-EU, read-out: urinary recovery of 5-FU) was 50%, the dose excreted ([1]; 5 mg/kg equivalent 5-FU, 5-EU predose 2 mg/kg, Table 2, read-out: Recovery 5-FU (%)) was 51% and the dose excreted ([1]; 5 mg/kg equivalent 5-FU, no predose, Table 2, read-out: Recovery 5-FU (%)) was 0%. For the same molecule, the “5-FU detection in the urine” value ([1]; 5 mg/kg 5-FU, without 5-EU predose) was “could not be detected”, the “Tumour-free Survivors (Day 56)” value (Colon 38; 25 mg/kg 5-FU equivalent) was 0/5 and the “Antitumour Activity T-C” value (Colon 38; 25 mg/kg 5-FU equivalent, once/day for 9 days) was 14.9 days. The “Tumour-free Survivors (Day 56)” value (Colon 38; 30 mg/kg 5-FU equivalent) was 0/5, the “Antitumour Activity T-C” value (Colon 38; 30 mg/kg 5-FU equivalent, once/day for 9 days) was 23.6 days and the “Tumour-free Survivors (Day 56)” value (Colon 38; 40 mg/kg 5-FU equivalent) was 0/5. The “Antitumour Activity T-C (column entry Toxic)” value (Colon 38; 40 mg/kg 5-FU equivalent, once/day for 9 days) was “Toxic”.
For O=c1[nH]c(=O)n([C@H]2C[C@H](O)[C@@H](CO)O2)cc1C=CBr [5-(2-bromovinyl)-2'-deoxyuridine], the “effect on 5-fluorouracil metabolism and antitumour activity” value [5] is given as “enhances the antitumour activity of 5-fluorouracil and 5-deoxy-5-fluorouridine”.
With C#Cc1cn([C@@H]2O[C@H](CO)[C@@H](O)[C@@H]2O)c(=O)[nH]c1=O [arabinoside of 5-EU] the “dose response for urinary recovery of 5-FU” value (DPD) was “A direct dose response for urinary recovery of 5-FU was observed”.
In the case of O=c1[nH]cc(C=CBr)c(=O)[nH]1 [5-(2-bromovinyl)-uracil (BVU), 5-(2-bromovinyl)-uracil], the “inhibition of dihydrothymidine dehydrogenase” value (uracil reductase; Cancer Research 46, 1094, 1986) is listed as “is an inhibitor of dihydrothymidine dehydrogenase” and the “effect on 5-fluorouracil metabolism and antitumour activity” value [5] is listed as “retards the metabolism of 5-fluorouracil and enhances its antitumour activity”.
In the case of C#Cc1cn([C@H]2C[C@H](O)[C@@H](COP(=O)(O)O)O2)c(=O)[nH]c1=O [2'-deoxy-5'-monophosphate of 5-EU, 1-(2-Deoxy-β-D-Erythro-Pentofuranosyl)-5-Ethynyluracil 5'-Monophosphate], the “dose response for urinary recovery of 5-FU” value (DPD) was “A direct dose response for urinary recovery of 5-FU was observed”.
